The results in this text go back to patent US7947830B2, “Substituted propenyl piperazine derivatives as novel inhibitors of histone deacetylase” (Janssen Pharmaceutica N.V., priority 2004, dated 2011).

For series [1], the target named is histone deacetylase (HeLa nuclear extracts). Put plainly: In vitro assay for inhibition of histone deacetylase (HDAC Fluorescent Activity Assay, Fluor de Lys). The class given is biochemical. The conditions noted are these: Fluor de Lys substrate. The source says: The in vitro assay for inhibition of histone deacetylase (see example C.1) measures the inhibition of HDAC enzymatic activity obtained with the compounds of formula (I).
The HDAC Fluorescent Activity Assay/Drug Discovery Kit of Biomol (cat.No: AK-500-0001) was used. The HDAC Fluorescent Activity Assay is based on the Fluor de Lys (Fluorogenic […] deAcetylase Lysyl) substrate and developer combination. The Fluor de Lys substrate, comprises an acetylated lysine side chain. Deacetylation of the substrate sensitizes the substrate so that, in the second step, treatment with the Fluor de Lys developer produces a fluorophore.
After 30 min, 1 volume of the developer was added. […] For each experiment, controls (containing HeLa nuclear extract and buffer), a blank incubation (containing buffer but no HeLa nuclear extract) and samples (containing compound dissolved in DMSO and further diluted in buffer and HeLa nuclear extract) were run in parallel. […] All sample were tested 4 times. In each test the blank value was substracted from both the control and the sample values. The control sample represented 100% of substrate deactylation. For each sample the fluorescence was expressed as a percentage of the mean value of the controls. […] Herein the effects of test compounds are expressed as pIC50 (the negative log value of the IC50-value) (see Table F-3).

Series [2] relates to A2780 ovarian carcinoma cells. Nature of the series: Antiproliferative activity on A2780 cells (MTT). The class given is cell-based, human. The conditions noted are these: four days of incubation; for IC50: Homo sapiens, A2780, 96 h, read-out: Cellular activity pIC50 C.2. (converted). On the procedure: Cellular activity of the compounds of formula (I) was determined on A2780 tumour cells using a […] assay for cell toxicity or survival (Mosmann Tim, Journal of Immunological Methods 65: 55-63, 1983)(see example C.2).
All compounds tested were dissolved in DMSO and further dilutions were made in culture medium. Final DMSO concentrations never exceeded 0.1% (v/v) in cell proliferation assays. Controls contained A2780 cells and DMSO without compound and blanks contained DMSO but no cells. MTT was dissolved at 5 mg/ml in PBS. A glycine buffer comprised of 0.1 M glycine and 0.1 M NaCl buffered to pH 10.5 with NaOH (1 N) was prepared (all reagents were from Merck).
The human A2780 ovarian carcinoma cells (a kind gift from Dr. T. C. Hamilton [Fox Chase Cancer Centre, Pennsylvania, USA]) were cultured in RPMI 1640 medium supplemented with 2 mM L-glutamine, 50 μg/ml gentamicin and 10% fetal calf serum.
Cells were routinely kept as monolayer cultures at 37° C. in a humidified 5% CO2 atmosphere. Cells were passaged once a week using a trypsin/EDTA solution at a split ratio of 1:40. All media and supplements were obtained from Life Technologies. Cells were free of mycoplasma contamination as determined using the Gen-Probe Mycoplasma Tissue Culture kit (supplier: BioMérieux).
Cells were seeded in NUNC™ 96-well culture plates (Supplier: Life Technologies) and allowed to adhere to the plastic overnight. Densities used for plating were 1500 cells per well in a total volume of 200 μl medium. After cell adhesion to the plates, medium was changed and drugs and/or solvents were added to a final volume of 200 μl. Following four days of incubation, medium was replaced by 200 μl fresh medium and cell density and viability was assessed using an MTT-based assay. To each well, 25 μl […] solution was added and the cells were further incubated for 2 hours at 37° C. The medium was then carefully aspirated and the blue MTT-formazan product was solubilized by addition of 25 μl glycine buffer followed by 100 μl of DMSO. […] Within an experiment, the results for each experimental condition are the mean of 3 replicate wells. For initial screening purposes, compounds were tested at a single fixed concentration of 10^−6 M. For active compounds, the experiments were repeated to establish full concentration-response curves. For each experiment, controls (containing no drug) and a blank incubation (containing no cells or drugs) were run in parallel. The blank value was subtracted from all control and sample values. For each sample, the mean value for cell growth (in absorbance units) was expressed as a percentage of the mean value for cell growth of the control. […] Herein the effects of test compounds are expressed as pIC50 (the negative log value of the IC50-value)(see Table F-3).

A short description of series [3]: Solubility at different pH's, chemiluminescent nitrogen detector (C.3.b). The settings on record: for solubility: pH 2.3, aqueous buffer, read-out: Solubility C.3.b. pH = 2.3 mg/ml. The format is physicochemical. The source says:
In a second method the solubility of a compound at different pH's can be measured with the use of a chemiluminescent nitrogen detector (see example C.3.b).
The solubility of a compound, at different pH's, can also be measured with the use of a cherniluminescent nitrogen detector (see Table F-3).

Broadly, the melting point is the temperature of the solid-liquid transition.

≈ marks a conversion by molar mass, not a printed value.

`CNC(=O)C(/C=C/c1ccccc1)N1CCN(c2ncc(C(=O)NO)cn2)CC1` (stereo not drawn) [Compound 16]: the “Enzymatic activity pIC50 C.1.” value in series [1] worked out at 7.4. The IC50 in series [2] is 79.4 nM. For the same molecule, the solubility in series [3] was 2800 µg/mL (≈ 7.06 mM).
In the case of `O=C(NO)c1cnc(N2CCN(C(/C=C/c3ccc(Cl)cc3)CN3CCOCC3)CC2)nc1` (stereo not drawn) (hydrate or solvate) [Compound 2], the melting point turned out to be 135 °C.
On to `CC(/C=C/c1ccccc1)(C(=O)N1CCOCC1)N1CCN(c2ncc(C(=O)NO)cn2)CC1` (stereo not drawn) [Compound 13], for which, in series [1], the “Enzymatic activity pIC50 C.1.” value came out at 8.8. Further, the IC50 in series [2] was 100 nM. In series [3], the solubility came out at 3700 µg/mL (≈ 7.93 mM).
Take `CC(/C=C/c1ccccc1)N1CCN(c2ncc(C(=O)NO)cn2)CC1` (stereo not drawn) [Compound 7]: the melting point was 161 °C. For the same molecule, the “Enzymatic activity pIC50 C.1.” value in series [1] is on record as over 9. Also, in series [2], the IC50 is 31.6 nM. Besides, the solubility in series [3] was determined as 2000 µg/mL (≈ 5.66 mM).
Taken in the same sequence, the figures for `COCC(/C=C/c1ccccc1)N1CCN(c2ncc(C(=O)NO)cn2)CC1` (stereo not drawn) [Compound 11] were 212 °C, 9.4, 10 nM and 3100 µg/mL (≈ 8.08 mM).
As to `O=C(NO)c1cnc(N2CCN([C@H](/C=C/c3ccc(F)cc3)CO)CC2)nc1` (single isomer, unassigned) [Compound 34], the “Cellular activity pIC50 C.2.” value in series [2] is 7.9.
Consider `CCCCN(C)C(=O)C(C)(/C=C/c1ccc(F)cc1)N1CCN(c2ncc(C(=O)NO)cn2)CC1` (stereo not drawn) [Compound 20], for which, in series [1], the “Enzymatic activity pIC50 C.1.” value is 7.7. Besides, in series [2], the IC50 was 50.1 nM.
Consider `CC(/C=C/c1ccccc1)N1CCN(c2ncc(C(=O)NO)cn2)CC1` (stereo not drawn) [Compound 35], for which, in series [1], the “Enzymatic activity pIC50 C.1.” value was 9.6. In addition, in series [2], the “Cellular activity pIC50 C.2.” value is listed as 7.8.
As to `O=C(NO)c1cnc(N2CCN([C@H](/C=C/c3ccc(F)cc3)CO)CC2)nc1` (single isomer, unassigned) [Compound 28], the “Cellular activity pIC50 C.2.” value in series [2] turned out to be 7.5.
As for `O=C(NO)c1cnc(N2CCN(C(/C=C/c3ccccc3)C(=O)N3CCOCC3)CC2)nc1` (stereo not drawn) [Compound 17], in series [1], the “Enzymatic activity pIC50 C.1.” value was found to be 8.8. In addition, in series [2], the IC50 was 200 nM. In addition, in series [3], the solubility is 2200 µg/mL (≈ 4.86 mM).
In the case of `CN(C)CCNC(=O)C(/C=C/c1ccccc1)N1CCN(c2ncc(C(=O)NO)cn2)CC1` (stereo not drawn) [Compound 18], in series [1], the “Enzymatic activity pIC50 C.1.” value was found to be 8.5. Moreover, in series [2], the IC50 is 100 nM. The solubility in series [3] was 3600 µg/mL (≈ 7.94 mM).
For the molecule `CC(=O)OCC(/C=C/c1ccccc1)N1CCN(c2ncc(C(=O)NO)cn2)CC1` (stereo not drawn) [Compound 9], the melting point was determined as 161 °C. The “Enzymatic activity pIC50 C.1.” value in series [1] came out at 9.4. For the same molecule, the IC50 in series [2] is 25.1 nM.
In the case of `CCN(C)C(=O)C(C)(/C=C/c1ccc(F)cc1)N1CCN(c2ncc(C(=O)NO)cn2)CC1` (stereo not drawn) [Compound 14], the “Enzymatic activity pIC50 C.1.” value in series [1] came out at 8.5. In addition, in series [2], the IC50 was 39.8 nM. In addition, in series [3], the solubility amounted to 2800 µg/mL (≈ 6.13 mM).
`CN(C)C(=O)C(C)(/C=C/c1ccc(F)cc1)N1CCN(c2ncc(C(=O)NO)cn2)CC1` (stereo not drawn) (hydrate or solvate) [Compound 10] returned a melting point of 146 °C.
For the molecule `O=C(NO)c1cnc(N2CCN([C@@H](/C=C/c3ccccc3)CO)CC2)nc1` (single isomer, unassigned) [Compound 26], in series [1], the “Enzymatic activity pIC50 C.1.” value is recorded as 8.3. Besides, in series [2], the “Cellular activity pIC50 C.2.” value is on record as 7.2. In series [3], the “Solubility C.3.b. pH = 2.3 mg/ml” value is listed as 3.5 mg/ml.
The molecule `O=C(NO)c1ccc(N2CCN(C(/C=C/c3ccc(F)cc3)CO)CC2)nc1` (stereo not drawn) [Compound 31] displayed a melting point of 145 °C. The “Enzymatic activity pIC50 C.1.” value in series [1] was found to be 8.5. In addition, the IC50 in series [2] was 39.8 nM.
In the case of `CCOCC(/C=C/c1ccccc1)N1CCN(c2ncc(C(=O)NO)cn2)CC1` (stereo not drawn) [Compound 24], the “Enzymatic activity pIC50 C.1.” value in series [1] was found to be 8.8. Moreover, the IC50 in series [2] is 31.6 nM. The solubility in series [3] was 4000 µg/mL (≈ 10.1 mM).
For the molecule `O=C(NO)c1cnc(N2CCN([C@@H](/C=C/c3ccc(F)cc3)CO)CC2)nc1` (single isomer, unassigned) [Compound 27], in series [2], the “Cellular activity pIC50 C.2.” value came out at 7.5.
As for `O=C(NO)c1cnc(N2CCN(C(/C=C/c3ccccc3)C(=O)NCCO)CC2)nc1` (stereo not drawn) [Compound 19], the “Enzymatic activity pIC50 C.1.” value in series [1] came to 8.4. The IC50 in series [2] was 501 nM. Also, the solubility in series [3] came out at 2600 µg/mL (≈ 6.1 mM).
`CN1CCN(CC(/C=C/c2ccccc2)N2CCN(c3ncc(C(=O)NO)cn3)CC2)CC1` (stereo not drawn) [Compound 22]: the “Enzymatic activity pIC50 C.1.” value in series [1] is recorded as 7.9. For the same molecule, the IC50 in series [2] is 158 nM. The solubility in series [3] is 4200 µg/mL (≈ 9.3 mM).
For the molecule `CN(C)C(=O)C(C)(/C=C/c1ccc(F)cc1)N1CCN(c2ncc(C(=O)NO)cn2)CC1` (stereo not drawn) [Compound 10], the “Enzymatic activity pIC50 C.1.” value in series [1] came out at 8.4. Further, in series [2], the IC50 was 31.6 nM. The solubility in series [3] was 3000 µg/mL (≈ 6.78 mM).
Turning to `O=C(NO)c1cnc(N2CCN(C(/C=C/c3ccccc3)Cn3ccnc3)CC2)nc1` (stereo not drawn) [Compound 23], the “Enzymatic activity pIC50 C.1.” value in series [1] is on record as 8.0. The IC50 in series [2] was 251 nM.
For `O=C(NO)c1cnc(N2CCN([C@@H](/C=C/c3ccccc3)CO)CC2)nc1` (single isomer, unassigned) [Compound 25], the “Enzymatic activity pIC50 C.1.” value in series [1] came to 7.9. Besides, the “Cellular activity pIC50 C.2.” value in series [2] is given as 7.6. In addition, in series [3], the solubility amounted to 3400 µg/mL (≈ 9.2 mM).
On to `COCC(/C=C/c1ccc(F)cc1)N1CCN(c2ncc(C(=O)NO)cn2)CC1` (stereo not drawn) [Compound 32], for which the “Enzymatic activity pIC50 C.1.” value in series [1] is listed as over 9. For the same molecule, in series [2], the IC50 was under 31.6 nM.
Turning to `O=C(NO)c1cnc(N2CCN([C@@H](/C=C/c3ccc(F)cc3)CO)CC2)nc1` (single isomer, unassigned) [Compound 33], in series [2], the “Cellular activity pIC50 C.2.” value is given as 8.2.
On to `O=C(NO)c1cnc(N2CCN(C(/C=C/c3ccc(F)cc3)CO)CC2)nc1` (stereo not drawn) [Compound 8], for which the IC50 in series [2] was 12.6 nM. Further, the solubility in series [3] stood at 2900 µg/mL (≈ 7.49 mM).
`Cc1ccc(/C=C/C(CO)N2CCN(c3ncc(C(=O)NO)cn3)CC2)cc1` (stereo not drawn) [Compound 12]: the “Enzymatic activity pIC50 C.1.” value in series [1] worked out at 9.0. In addition, the IC50 in series [2] is 31.6 nM. For the same molecule, the solubility in series [3] came out at 2100 µg/mL (≈ 5.48 mM).
For `O=C(NO)c1cnc(N2CCN(C(/C=C/c3ccccc3)CN3CCOCC3)CC2)nc1` (stereo not drawn) [Compound 21], in series [1], the “Enzymatic activity pIC50 C.1.” value was found to be 7.9. For the same molecule, in series [2], the IC50 was 158 nM. Further, the solubility in series [3] came out at 2100 µg/mL (≈ 4.79 mM).
